Test: Human HepG2 cell viability assay in 384 well format
Format: toxicity, cell-based
Set-up: dose 125 nL, time 70.5 hour; cytotoxicity at 70.5 h: concentration not given beside the values
Conditions: HepG2 cells, read-out: Inhibition

Structure (SMILES) | cytotoxicity at 70.5 h
CNS(=O)(=O)c1cc(C(=O)N2CCCCCC2CC(C)C)co1 (configuration not stated) | -3.95%
CN1CCOC(C(=O)Nc2nnc(Cc3ccc(F)cc3)[nH]2)C1 (configuration not stated) | -7.94%
CCOC(C)C(=O)Nc1cc(S(=O)(=O)NC2CC2)ccc1F (configuration not stated) | 6.35%
Cc1nc(CN(C)c2nccc(N(C)C)n2)cs1 | -0.0733%
Cc1ccn(Cc2nc(CC(C)C)no2)c(=O)c1 | -6.72%
Cc1nc(CSCCC(=O)Nc2cccc(N3CCNC3=O)c2)cs1 | -0.129%
O=C(NCc1ccnc(OCC(F)(F)F)c1)NCC1CCOC1 (configuration not stated) | -15.8%
Cc1cc(-n2c(C)cn(CN(C)Cc3ccccc3)c2=O)no1 | -5.85%
COc1ccc(CN(C)Cn2cc(C)n(-c3cc(C)on3)c2=O)cc1 | -12.5%
Cc1cc(CN(CCO)Cc2cc(Br)ccc2F)no1 | -17.4%
N#Cc1c(CN2CCCC2Cn2cncn2)cn2ccccc12 (configuration not stated) | -12.3%
COCC(=O)NC(c1ccccc1)c1ccc2c(c1)CCCO2 (configuration not stated) | -16.4%
O=C(Cn1cnnn1)NC(c1ccccc1)c1ccc2c(c1)CCCO2 (configuration not stated) | 24.4%
Cc1ccc(C2CSCCN2C(=O)c2ccncc2)cc1 (configuration not stated) | 0.0663%
CCOCCOC(C)C(=O)Nc1ccc2ccn(CC(=O)NC)c2c1 (configuration not stated) | -13.2%
O=C(Nc1cccnc1)NC1(c2cccc(F)c2)CC1 | -14.7%
CCc1ccccc1CNC(=O)NCc1cnn(C)c1 | -11.8%
O=C(NCCO)NC(c1ccccc1)c1ccc2c(c1)CCCO2 (configuration not stated) | -12.9%
CC1CS(=O)(=O)CCN1CCCc1ccc(Cl)cc1 (configuration not stated) | -6.15%
O=C(CCCc1ccccn1)Nc1cccc(N2CCCNC2=O)c1 | -0.166%
COc1ccccc1C1(CNC(=O)NCc2noc(C)n2)CC1 | 26.4%
CS(=O)(=O)c1ccc(NC(=O)NC2(c3cccc(F)c3)CC2)cc1 | -7.54%
Cc1ccc(C2CN(CCS(C)(=O)=O)CCO2)c(C)c1 (configuration not stated) | -12.5%
O=S(=O)(c1cncc(F)c1)N1CCC2(CCOC2)C1 (configuration not stated) | -14.3%

Structure (SMILES) | cytotoxicity at 70.5 h
O=S(=O)(c1cncc(F)c1)N1CCC2(CCCCC2)C1 | -13%
Cc1nc(CNC(=O)NCC2(C)CCCc3ccccc32)no1 (configuration not stated) | 29.3%
CC(=O)Nc1ccc(SCC(O)COCc2ccc3c(c2)OCO3)cc1 (configuration not stated) | -4.91%
CC1CS(=O)(=O)CCN1CCCc1ccc(C(F)(F)F)cc1 (configuration not stated) | -10.6%
Clc1ccc(C(CNCc2cccnc2)n2cccn2)cc1 (configuration not stated) | 24.3%
CCn1cc(CNCC(c2ccc(Cl)cc2)n2cccn2)cn1 (configuration not stated) | -14.8%
Cc1cc(-n2c(C)cn(CN(C)CC3CC3)c2=O)no1 | -1.13%
COCCCN(Cc1ccncc1)c1ncc(C#N)cc1Cl | -0.375%
Cc1ccc(C2CSCCN2C(=O)c2ccccn2)cc1 (configuration not stated) | -13.2%
CCc1ccccc1CNC(=O)CCc1cnn(C)c1 | -8.72%
CC(C)N1C(=O)CN(CCCO)CC1(C)C | -9.87%
COCCC1(C(=O)NCCc2nncn2C2CC2)CCC1 | -13.5%
CC(=O)N1CCC(Oc2ccc(C#N)cc2)CC1 | 9.28%
Cc1noc(CCNC(=O)c2ccc(Br)c(S(=O)(=O)N(C)C)c2)n1 | -4.79%
Cc1occc1C(=O)NCC(=O)N1CCC(COc2ccccc2)CC1 | -2.93%
CS(=O)(=O)N1CCC(C(=O)N2CCOc3ccccc32)CC1 | -5.71%
CC1CCN(C(=O)C2CCN(S(C)(=O)=O)CC2)c2ccccc21 (configuration not stated) | -7.57%
Cc1nn(C)c(Cl)c1S(=O)(=O)N(CC(N)=O)CC(C)C | -16.6%
Cc1nn(C)c(C)c1S(=O)(=O)N(CC(N)=O)CC(C)C | -8.24%
NC(=O)C(Cc1ccccc1)NS(=O)(=O)Cc1ccccc1F (configuration not stated) | -15%
Cc1ccc(NC(=O)N(C)C)c(C(=O)OCC(=O)NC2CCCC2)c1 | -0.892%
Cc1ccc(NC(=O)N(C)C)c(C(=O)OCC(=O)NC(C)C(C)C)c1 (configuration not stated) | 26.9%
Cc1nc(-c2ccc(S(=O)(=O)N3CCSCC3)cc2)co1 | -5.93%
